From patent US5559232A, “Carboxamides” (Hoffmann-La Roche Inc., priority 1993, dated 1996)

Legend:
human thrombin = human thrombin (Homo sapiens, UniProt P00734); test: inhibition of the amidolytic activity of thrombin (chromogenic substrate S-2238); assay type: biochemical; conditions: for Ki: human thrombin 0.5 nM, substrate S-2238, pH 7.8, room temperature; for q (ratio of the inhibition of trypsin to the inhibition of thrombin): specificity: Ki trypsin / Ki thrombin
Protocol: A differential inhibition of thrombin and other serine proteases by the above compounds is desirable in order to obtain compounds having as high a specificity as possible and at the same time to avoid possible side-effects.
Specific chromogenic peptide substrates can be used to determine the inhibition of the catalytic activity of the above proteases. The inhibition of the amidolytic activity of thrombin and trypsin by the above guanidines was determined as described hereinafter.
The measurements were carried out on microtitre plates at room temperature. For this, in each well of the plate 150 μl of buffer (50 mM Tris, 100 mM NaCl, 0.1% polyethylene glycol; pH 7.8) were mixed with 50 μl of the inhibitor dissolved in DMSO and diluted in the buffer, and 25 μl of human thrombin (0.5 nM final conc.) were added. After incubation for 10 minutes the reaction was started by the addition of chromogenic substrate S-2238 (H-D-Phe-Pip-Arg-paranitroaniline from Kabivitrum; 10 or 50 μm final conc.) and the hydrolysis of the substrate was followed spectrophotometrically on a kinetic microtiter plate reader for 5 minutes. After graphical presentation of the inhibition curves the Ki values were determined according to the method described in Blochem. J. 55, 1955, 170-171.

trypsin = test: inhibition of the amidolytic activity of trypsin (chromogenic substrate S-2251); assay type: biochemical; conditions: substrate S-2251, 200 and 750 μM, otherwise analogous to thrombin

Compound | Ki (human thrombin) [µM] | q (ratio of the inhibition of trypsin to the inhibition of thrombin) (human thrombin) | Ki (trypsin) [µM]
CCOC(=O)CN(C(=O)[C@H](CC(=O)NC[C@@H]1CCCN(C(=N)N)C1)NC(=O)NCc1ccccc1)C1CC1 [Example 9a, ethyl [[(S)-3-[(S)-1-(amino-imino-methyl)-piperidin-3-ylmethylcarbamoyl]-2-(3-benzyi-ureido)-propionyl]-cyclopropylamino]-acetate] | 1.3 | 73 | 95
N=C(N)N1CCC[C@@H](CNC(=O)C[C@H]2C(=O)N(C3CCCC3)CC(=O)N2S(=O)(=O)c2ccc3ccccc3c2)C1 [Example 16, N-[(S)-1-(amino-imino-methyl)-piperidin-3-ylmethyl]-2[(S)-4-cyclopentyl-1-naphthalen-2-ylsulphonyl-3,6-dioxopiperazin-2-yl]-acetamide] | 0.11 | 127 | 14
CCCCN(CCC(=O)OCC)C(=O)[C@H](CC(=O)NC[C@@H]1CCCN(C(=N)N)C1)NC(=O)NCc1ccco1 [Example 10, Ethyl 3-[[(S)-3-[(S)-1-(amino-imino-methyl)-piperidin-3-ylmethylcarbamoyl]-2-(3-furan-2-ylmethyl-ureido)-propionyl]-butylamino]-propionate] | 0.25 | 204 | 51
N=C(N)N1CCOC(CNC(=O)C[C@H](NC(=O)OCc2ccccc2)C(=O)N(CCC(=O)O)C2CC2)C1 (stereo partly drawn) [Example 6c, 3-[[(S)-3-[4-(amino-imino-methyl)-morpholin-2-ylmethylcarbamoyl]-2-benzyloxycarbonylamino-propionyl]-cyclopropyl-amino]propionic acid] | 0.33 | 279 | 92
CCCCCC(=O)N[C@@H](CC(=O)NC[C@@H]1CCCN(C(=N)N)C1)C(=O)N(CC(=O)OCC)C1CC1 [Example 13b, ethyl [[(S)-3-[(S)-1-(amino-imino-methyl)-piperidin-3-ylmethylcarbamoyl]-2-hexanoylamino-propionyl]-cyclopropyl-amino]acetate] | 0.41 | 183 | 75
COC(=O)CC[C@H](O)C(=O)N[C@@H](CC(=O)NC[C@@H]1CCCN(C(=N)N)C1)C(=O)N(CCNC(=O)c1cnccn1)C1CC1 [Example 21b, methyl (S)-4-[(S)-2-[(S)-1-(amino-imino-methyl)-piperidin-3-ylmethylcarbonyl]-1-[cyclopropyl-(2-pyrazin-2-ylcarbonylaminoethyl)-carbamoyl]-ethylcarbamoyl]-4-hydroxy-butrate] | 0.0072 | 1944 | 14
N=C(N)N1CCC[C@@H](CNC(=O)C[C@H](NC(=O)OCc2ccccc2)C(=O)N(CCC(=O)O)C2CC2)C1 [Example 4a, 3-[[(S)-3-[(S)-1-(Amino-imino-methyl)-piperidin-3-ylmethylcarbamoyl]-2-benzyloxycarbonylamino-propionyl]-cyclopropylamino]-propionic acid] | 0.079 | 1051 | 83
CCOC(=O)CN(C(=O)[C@H](CC(=O)NC[C@@H]1CCCN(C(=N)N)C1)NC(=O)NCc1ccco1)C1CC1 [Example 9b1, Ethyl [[(S)-3-[(S)-1-(amino-imino-methyl)-piperidin-3-ylmethylcarbamoyl]-2-(3-furan-2-ylmethyl-ureido)-propionyl]-cyclopropyl-amino]-acetate] | 1.5 | 53 | 80

The remaining lines, values ahead:

Ki (human thrombin) [µM] | q (ratio of the inhibition of trypsin to the inhibition of thrombin) (human thrombin) | Ki (trypsin) [µM] | Compound
0.064 | 438 | 28 | CCCCN(CC(=O)O)C(=O)[C@H](CC(=O)NC[C@@H]1CCCN(C(=N)N)C1)NC(=O)OCc1ccccc1 [Example 4b, [[(S)-3-[(S)-1-(amino-imino-methyl)-piperidin-3-ylmethylcarbamoyl]-2-benzyloxycarbonylamino-propionyl]-butyl-amino]-acetic acid]
0.61 | 92 | 56 | CCCCN(CC(=O)OCC)C(=O)[C@H](CC(=O)NC[C@@H]1CCCN(C(=N)N)C1)NC(=O)OCc1ccccc1 [Example 2b, ethyl [[(S)-3-[(S)-1-(amino-imino-methyl)-piperidin-3-ylmethylcarbamoyl]-2-benzyloxycarbonylamino-propionyl]-butyl-amino]acetate]
0.077 | 390 | 30 | CCCCN(CCC(=O)OCC)C(=O)[C@H](CC(=O)NC[C@@H]1CCCN(C(=N)N)C1)NC(=O)OCc1ccccc1 [Example 2c, ethyl 3-[[(S)-3-[(S)-1-(amino-imino-methyl)-piperidin-3-ylmethylcarbamoyl]-2-benzyloxycarbonylamino-propionyl]-butylamino]-propionate]
0.0035 | 18571 | 65 | CCCCN(CC(=O)O)C(=O)[C@H](CC(=O)NCC1CN(C(=N)N)CCO1)NC(=O)OCc1ccccc1 (stereo partly drawn) [Example 6b, [[(S)-3-[4-(amino-imino-methyl)-morpholin-2-ylmethylcarbamoyl]-2-benzyloxycarbonylamino-propionyl]-butyl-amino]-acetic acid]
0.017 | 1706 | 29 | CCOC(=O)CCN(C(=O)[C@H](CC(=O)NC[C@@H]1CCCN(C(=N)N)C1)NC(=O)OCc1ccccc1)C1CC1 [Example 2a, Ethyl 3-[[(S)-3-[(S)-1-(amino-imino-methyl)-piperidin-3-ylmethylcarbamoyl]-2-benzyloxycarbonylamino-propionyl]-cyclopropylamino]-propionate]
